The first data set relates to cholesterol biosynthesis in vivo. Briefly: Test C: Inhibition of cholesterol biosynthesis in vivo. Also on record: species or system Male Sprague-Dawley rats. The settings on record: oral administration of 0.05 mg/kg, relative to the control group, rats.
For `O=C(O)CC(O)CC(O)/C=C/c1c(C2CC2)nc2ccccc2c1-c1ccc(F)cc1` (stereo not drawn) [Compound I-520], the “percent decrease of counts” value is 55%.

The same data set, now with this note: oral administration of 10 mg/kg, relative to the control group, rats.
For `CC[C@H](C)C(=O)O[C@H]1C[C@H](O)C=C2C=C[C@H](C)[C@H](CC[C@@H](O)C[C@@H](O)CC(=O)O)[C@H]21` [CS-514, reference compound], the “percent decrease of counts” value stood at 55%.

Test system in a further data set: not listed separately
Briefly: Test D: Acute toxicity. The settings on record: mouse, in vivo, po; orally administered 1000 mg/kg, 0.5% CMC suspension, ICR male mice, after seven days. The protocol:
A 0.5% CMC suspension of a test compound was orally administered to ICR male mice (group of three mice). The acute toxicity was determined based on the mortality after seven days. With compound I-57, I-58, I-59, I-511, I-512, I-513, I-514, I-515, I-517 and I-523 of the present invention, the mortality was 0% even when they were orally administered in an amount of 1000 mg/kg.
As for `CC(C)c1nc2ccccc2c(-c2ccccc2F)c1/C=C/C(O)CC(O)CC(=O)O` (stereo not drawn) [Compound I-57], the mortality – broadly, the share of the test organisms that died – at 168 h was 0%.

In turn, `Cc1ccc2c(-c3ccccc3)c(/C=C/C(O)CC(O)CC(=O)O)c(C(C)C)nc2c1` (stereo not drawn) [Compound I-58] returned a mortality at 168 h of 0%.

As to `CC(C)c1nc2ccccc2c(-c2ccc(Cl)cc2)c1/C=C/C(O)CC(O)CC(=O)O` (stereo not drawn) [Compound I-59], the mortality at 168 h was 0%.

For the molecule `Cc1ccc(-c2c(/C=C/C(O)CC(O)CC(=O)O)c(C(C)C)nc3ccccc23)cc1` (stereo not drawn) [Compound I-511], the mortality at 168 h turned out to be 0%.

In turn, `CC(C)c1nc2ccc(Cl)cc2c(-c2ccccc2Cl)c1/C=C/C(O)CC(O)CC(=O)O` (stereo not drawn) [Compound I-512] registered a mortality at 168 h of 0%.

Turning to `CC(C)c1nc2ccccc2c(-c2ccc(C(F)(F)F)cc2)c1/C=C/C(O)CC(O)CC(=O)O` (stereo not drawn) [Compound I-513], the mortality at 168 h is 0%.

In turn, `Cc1cc(-c2c(/C=C/C(O)CC(O)CC(=O)O)c(C(C)C)nc3ccccc23)ccc1F` (stereo not drawn) [Compound I-514] registered a mortality at 168 h of 0%.

For the molecule `Cc1cc(C)cc(-c2c(/C=C/C(O)CC(O)CC(=O)O)c(C(C)C)nc3ccccc23)c1` (stereo not drawn) [Compound I-515], the mortality at 168 h was determined as 0%.

`CCc1nc2ccccc2c(-c2ccc(F)cc2)c1/C=C/C(O)CC(O)CC(=O)O` (stereo not drawn) [Compound I-517] returned a mortality at 168 h of 0%.

Molecule `O=C(O)CC(O)CC(O)/C=C/c1c(-c2ccccc2)nc2ccc(Cl)cc2c1-c1ccccc1` (stereo not drawn) [Compound I-523] showed a mortality at 168 h of 0%.

The record behind these values is patent EP0304063B1, “Quinoline type mevalonolactones” (NISSAN CHEMICAL INDUSTRIES LTD., priority 1987, dated 1989).
